Results as given in ChEMBL document CHEMBL4665658, “Quinoline and thiazolopyridine allosteric inhibitors of MALT1” (Bioorg Med Chem Lett, 2019).

Columns and labels:
[1] = Metabolic stability in human microsome assessed as half life; format: ADME; design: dose or concentration left out as unconfirmed; details: microsomes, read-out: Stabilty
[2] = Metabolic stability in mouse microsome assessed as half life; format: ADME; design: dose or concentration left out as unconfirmed; details: microsomes, read-out: Stabilty
[3] = AUC (0 to infinity) in mouse at 1 mg/kg, iv or 5 mg/kg, po; format: ADME, organism-based; design: dose 5 mg/kg; details: in vivo
OCI-Ly3 = test: Antiproliferative activity against human OCILY3 cells by cell proliferation assay; format: functional, cell-based
[4] = Plasma protein binding in mouse assessed as unbound fraction; format: ADME, cell-free; design: dose or concentration left out as unconfirmed; details: read-out: PPB
[5] = Clearance in mouse at 1 mg/kg, iv; format: ADME, organism-based; details: in vivo
[6] = Half life in mouse at 1 mg/kg, iv or 5 mg/kg, po; format: ADME, organism-based; details: in vivo
[7] = Oral bioavailability in mouse at 5 mg/kg; format: ADME, organism-based; details: in vivo
[8] = Plasma protein binding in human assessed as unbound fraction; format: ADME, cell-free; details: read-out: PPB
[9] = Aqueous solubility of the compound at pH 7; format: physicochemical; details: aqueous medium
[10] = target: Prothrombin (Homo sapiens) (UniProt P00734); test: Inhibition of thrombin (unknown origin) at 10 uM
[11] = target: Cathepsin G (Homo sapiens) (UniProt P08311); test: Inhibition of cathepsin G (unknown origin) at 10 uM
Sequence of Cathepsin G (Homo sapiens) (P08311 whole entry): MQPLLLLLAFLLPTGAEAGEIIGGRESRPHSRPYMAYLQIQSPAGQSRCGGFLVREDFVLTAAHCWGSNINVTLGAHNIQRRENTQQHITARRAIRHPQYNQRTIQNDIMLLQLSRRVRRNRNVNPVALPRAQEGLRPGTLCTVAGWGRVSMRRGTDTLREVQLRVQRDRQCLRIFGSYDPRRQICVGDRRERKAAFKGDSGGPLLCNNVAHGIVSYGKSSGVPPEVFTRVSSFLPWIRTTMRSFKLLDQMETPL

[12] = target: Kallikrein-1 (Homo sapiens) (UniProt P06870); test: Inhibition of KLK1 (unknown origin) at 10 uM
Sequence of Kallikrein-1 (Homo sapiens) (P06870 25-262 limits assumed): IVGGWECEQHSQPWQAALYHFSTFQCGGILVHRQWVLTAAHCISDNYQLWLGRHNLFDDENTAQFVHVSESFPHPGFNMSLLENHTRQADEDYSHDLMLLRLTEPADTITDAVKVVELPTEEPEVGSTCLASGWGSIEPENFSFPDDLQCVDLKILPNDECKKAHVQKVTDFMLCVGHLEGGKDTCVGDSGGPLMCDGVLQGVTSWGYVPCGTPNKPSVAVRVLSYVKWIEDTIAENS

Homo sapiens [13] = species: Homo sapiens; test: Inhibition of tryptase (unknown origin) at 10 uM
Trypsin (Homo sapiens) = Trypsin (Homo sapiens) (UniProt P07477+P07478+P35030); test: Inhibition of trypsin (unknown origin) at 10 uM; format: protein assay
[14] = target: Urokinase-type plasminogen activator (Homo sapiens) (UniProt P00749); test: Inhibition of urokinase (unknown origin) at 10 uM
[15] = target: T1, Pro-cathepsin H (Homo sapiens) (UniProt P09668); test: Inhibition of cathepsin H (unknown origin) at 10 uM
T1 sequence (whole entry): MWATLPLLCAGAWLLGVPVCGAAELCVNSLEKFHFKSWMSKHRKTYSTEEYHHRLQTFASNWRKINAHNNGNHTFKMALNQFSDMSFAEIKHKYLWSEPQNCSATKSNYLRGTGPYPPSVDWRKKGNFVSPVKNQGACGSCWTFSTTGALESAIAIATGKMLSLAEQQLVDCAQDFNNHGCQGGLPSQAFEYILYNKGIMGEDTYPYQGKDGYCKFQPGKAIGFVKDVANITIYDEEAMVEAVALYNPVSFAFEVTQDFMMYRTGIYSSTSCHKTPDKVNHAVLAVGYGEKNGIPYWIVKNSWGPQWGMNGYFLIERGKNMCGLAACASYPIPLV

[16] = target: T2, Cathepsin K (Homo sapiens) (UniProt P43235); test: Inhibition of cathepsin K (unknown origin) at 10 uM
T2 sequence (whole entry): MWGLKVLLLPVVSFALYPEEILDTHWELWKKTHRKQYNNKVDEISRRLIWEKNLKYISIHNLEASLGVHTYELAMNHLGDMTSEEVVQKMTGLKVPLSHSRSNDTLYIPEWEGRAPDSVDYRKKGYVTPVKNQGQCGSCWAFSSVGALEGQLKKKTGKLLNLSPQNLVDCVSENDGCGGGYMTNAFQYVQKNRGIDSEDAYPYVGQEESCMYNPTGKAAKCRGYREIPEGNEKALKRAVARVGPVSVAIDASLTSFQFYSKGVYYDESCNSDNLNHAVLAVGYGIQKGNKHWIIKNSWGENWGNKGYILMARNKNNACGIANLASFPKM

[17] = target: Cathepsin S (Homo sapiens) (UniProt P25774); test: Inhibition of cathepsin S (unknown origin) at 10 uM
Sequence of Cathepsin S (Homo sapiens) (P25774 115-331 limits assumed): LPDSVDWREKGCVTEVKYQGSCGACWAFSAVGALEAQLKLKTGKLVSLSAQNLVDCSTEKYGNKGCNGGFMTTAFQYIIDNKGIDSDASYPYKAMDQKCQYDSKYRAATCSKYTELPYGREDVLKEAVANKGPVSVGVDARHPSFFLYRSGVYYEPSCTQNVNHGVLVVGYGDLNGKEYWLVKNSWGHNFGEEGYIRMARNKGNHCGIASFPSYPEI

Caspase-4 (Homo sapiens) = target: T3, Caspase-4 (Homo sapiens) (UniProt P49662); test: Inhibition of Caspase 4 (unknown origin) at 10 uM
T3 sequence (whole entry): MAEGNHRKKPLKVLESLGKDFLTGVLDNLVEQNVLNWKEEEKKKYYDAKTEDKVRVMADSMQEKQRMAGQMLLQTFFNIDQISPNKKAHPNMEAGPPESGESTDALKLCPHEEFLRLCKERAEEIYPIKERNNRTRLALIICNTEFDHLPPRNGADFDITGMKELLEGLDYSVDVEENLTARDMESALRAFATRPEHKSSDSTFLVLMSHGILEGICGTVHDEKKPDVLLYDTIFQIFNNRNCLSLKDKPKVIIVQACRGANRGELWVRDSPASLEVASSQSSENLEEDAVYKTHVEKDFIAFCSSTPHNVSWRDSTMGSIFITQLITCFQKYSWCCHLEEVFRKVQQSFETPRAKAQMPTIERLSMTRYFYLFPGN

Caspase-6 (Homo sapiens) = target: T4, Caspase-6 (Homo sapiens) (UniProt P55212); test: Inhibition of Caspase 6 (unknown origin) at 10 uM
T4 sequence (whole entry): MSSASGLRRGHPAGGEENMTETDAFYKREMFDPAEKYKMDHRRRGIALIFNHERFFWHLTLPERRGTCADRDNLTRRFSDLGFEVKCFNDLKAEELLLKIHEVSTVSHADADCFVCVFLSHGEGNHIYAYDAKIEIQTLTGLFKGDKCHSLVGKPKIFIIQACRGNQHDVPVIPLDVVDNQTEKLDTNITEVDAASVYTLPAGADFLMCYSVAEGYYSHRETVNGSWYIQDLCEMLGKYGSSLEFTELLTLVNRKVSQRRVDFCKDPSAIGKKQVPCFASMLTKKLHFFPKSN

Caspase-8 (Homo sapiens) = Caspase-8 (Homo sapiens) (UniProt Q14790); test: Inhibition of Caspase 8 (unknown origin) at 10 uM
Sequence of Caspase-8 (Homo sapiens) (Q14790 217-374 limits assumed): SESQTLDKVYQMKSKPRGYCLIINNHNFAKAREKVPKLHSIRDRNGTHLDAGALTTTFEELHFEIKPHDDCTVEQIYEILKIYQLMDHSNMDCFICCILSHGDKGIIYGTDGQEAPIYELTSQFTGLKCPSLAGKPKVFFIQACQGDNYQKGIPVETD
Sequence of Caspase-8 (Homo sapiens) (Q14790 385-479 limits assumed): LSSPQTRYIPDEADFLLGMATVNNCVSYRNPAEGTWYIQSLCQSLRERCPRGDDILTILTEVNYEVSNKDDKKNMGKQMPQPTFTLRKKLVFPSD

Homo sapiens [18] = species: Homo sapiens; test: Inhibition of Calpain (unknown origin) at 10 uM
Legumain (Homo sapiens) = target: T5, Legumain (Homo sapiens) (UniProt Q99538); test: Inhibition of Legumain (unknown origin) at 10 uM
T5 sequence (whole entry): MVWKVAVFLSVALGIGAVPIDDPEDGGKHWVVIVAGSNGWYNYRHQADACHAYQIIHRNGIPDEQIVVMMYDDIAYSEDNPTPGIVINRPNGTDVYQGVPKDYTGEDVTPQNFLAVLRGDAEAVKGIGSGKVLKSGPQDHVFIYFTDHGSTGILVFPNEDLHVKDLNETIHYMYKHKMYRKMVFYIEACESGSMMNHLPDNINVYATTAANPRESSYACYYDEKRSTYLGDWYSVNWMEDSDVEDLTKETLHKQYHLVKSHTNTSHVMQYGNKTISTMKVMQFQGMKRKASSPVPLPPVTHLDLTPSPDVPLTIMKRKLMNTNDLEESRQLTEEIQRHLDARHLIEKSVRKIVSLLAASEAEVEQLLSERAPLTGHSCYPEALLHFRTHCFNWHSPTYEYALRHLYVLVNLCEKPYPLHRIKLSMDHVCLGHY

[19] = target: Kallikrein-2 (Homo sapiens) (UniProt P20151); test: Inhibition of KLK2 (unknown origin) at 10 uM
Sequence of Kallikrein-2 (Homo sapiens) (P20151 whole entry): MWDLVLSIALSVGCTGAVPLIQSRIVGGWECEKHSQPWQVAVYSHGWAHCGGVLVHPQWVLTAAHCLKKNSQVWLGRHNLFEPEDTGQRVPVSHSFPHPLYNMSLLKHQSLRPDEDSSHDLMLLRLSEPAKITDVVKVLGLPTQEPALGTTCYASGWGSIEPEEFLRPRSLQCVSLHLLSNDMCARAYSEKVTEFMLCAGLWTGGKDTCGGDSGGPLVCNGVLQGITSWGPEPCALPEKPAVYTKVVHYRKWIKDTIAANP

[20] = target: Cathepsin B (Homo sapiens) (UniProt P07858); test: Inhibition of cathepsin B (unknown origin) at 10 uM
[21] = target: Procathepsin L (Homo sapiens) (UniProt P07711); test: Inhibition of cathepsin L (unknown origin) at 10 uM
Sequence of Procathepsin L (Homo sapiens) (P07711 114-333 limits assumed): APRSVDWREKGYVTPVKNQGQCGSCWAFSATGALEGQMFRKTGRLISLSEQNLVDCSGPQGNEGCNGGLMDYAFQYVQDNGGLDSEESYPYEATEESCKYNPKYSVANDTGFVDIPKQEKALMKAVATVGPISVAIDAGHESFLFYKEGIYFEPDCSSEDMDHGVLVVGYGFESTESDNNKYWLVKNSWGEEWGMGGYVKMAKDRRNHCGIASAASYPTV

Caspase-3 (Homo sapiens) = Caspase-3 (Homo sapiens) (UniProt P42574); test: Inhibition of Caspase 3 (unknown origin) at 10 uM
Sequence of Caspase-3 (Homo sapiens) (P42574 29-175 limits assumed): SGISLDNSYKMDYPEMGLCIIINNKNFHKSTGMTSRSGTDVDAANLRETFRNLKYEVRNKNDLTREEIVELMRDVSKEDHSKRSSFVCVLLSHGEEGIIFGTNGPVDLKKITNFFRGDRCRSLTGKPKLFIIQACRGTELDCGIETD
Sequence of Caspase-3 (Homo sapiens) (P42574 176-277 limits assumed): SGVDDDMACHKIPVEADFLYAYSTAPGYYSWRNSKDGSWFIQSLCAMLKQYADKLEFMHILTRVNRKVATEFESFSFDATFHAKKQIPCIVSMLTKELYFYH

Caspase-9 (Homo sapiens) = Caspase-9 (Homo sapiens) (UniProt P55211); test: Inhibition of Caspase 9 (unknown origin) at 10 uM
Sequence of Caspase-9 (Homo sapiens) (P55211 1-315 limits assumed): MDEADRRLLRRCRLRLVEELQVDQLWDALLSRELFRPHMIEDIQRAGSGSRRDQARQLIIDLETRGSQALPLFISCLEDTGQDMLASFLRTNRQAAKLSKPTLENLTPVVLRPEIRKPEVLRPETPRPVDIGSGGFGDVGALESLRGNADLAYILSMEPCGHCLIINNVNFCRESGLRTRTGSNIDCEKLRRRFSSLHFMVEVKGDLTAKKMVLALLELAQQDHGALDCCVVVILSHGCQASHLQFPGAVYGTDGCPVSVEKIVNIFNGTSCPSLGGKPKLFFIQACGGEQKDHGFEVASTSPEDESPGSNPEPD
Sequence of Caspase-9 (Homo sapiens) (P55211 331-416 limits assumed): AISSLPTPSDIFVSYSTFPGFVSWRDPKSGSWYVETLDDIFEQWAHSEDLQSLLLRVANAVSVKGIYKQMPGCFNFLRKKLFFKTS

[22] = target: Caspase-10 (Homo sapiens) (UniProt Q92851); test: Inhibition of Caspase 10 (unknown origin) at 10 uM
Sequence of Caspase-10 (Homo sapiens) (Q92851 220-415 limits assumed): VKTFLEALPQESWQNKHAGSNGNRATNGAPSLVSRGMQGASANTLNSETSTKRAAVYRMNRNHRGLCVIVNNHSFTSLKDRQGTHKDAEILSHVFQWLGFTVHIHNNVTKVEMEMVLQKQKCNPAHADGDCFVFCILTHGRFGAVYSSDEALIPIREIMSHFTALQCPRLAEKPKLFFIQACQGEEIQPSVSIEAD
Sequence of Caspase-10 (Homo sapiens) (Q92851 416-521 limits assumed): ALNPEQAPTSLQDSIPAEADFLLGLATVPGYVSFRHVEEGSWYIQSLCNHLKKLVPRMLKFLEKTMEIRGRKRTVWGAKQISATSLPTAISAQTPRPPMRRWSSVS

[23] = target: Cathepsin D (Homo sapiens) (UniProt P07339); test: Inhibition of cathepsin D (unknown origin) at 10 uM
Sequence of Cathepsin D (Homo sapiens) (P07339 65-162 limits assumed): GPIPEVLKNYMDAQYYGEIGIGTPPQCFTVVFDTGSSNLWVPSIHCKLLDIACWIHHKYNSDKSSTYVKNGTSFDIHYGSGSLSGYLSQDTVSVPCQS
Sequence of Cathepsin D (Homo sapiens) (P07339 169-412 limits assumed): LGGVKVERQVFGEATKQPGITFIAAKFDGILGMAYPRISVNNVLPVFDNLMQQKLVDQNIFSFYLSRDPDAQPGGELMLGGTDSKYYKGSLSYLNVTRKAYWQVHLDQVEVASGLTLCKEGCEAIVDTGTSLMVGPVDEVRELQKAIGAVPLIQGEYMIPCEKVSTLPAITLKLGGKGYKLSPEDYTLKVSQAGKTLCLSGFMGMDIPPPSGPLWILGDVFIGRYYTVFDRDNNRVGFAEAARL

[24] = target: Cathepsin E (Homo sapiens) (UniProt P14091); test: Inhibition of cathepsin E (unknown origin) at 10 uM
Sequence of Cathepsin E (Homo sapiens) (P14091 whole entry): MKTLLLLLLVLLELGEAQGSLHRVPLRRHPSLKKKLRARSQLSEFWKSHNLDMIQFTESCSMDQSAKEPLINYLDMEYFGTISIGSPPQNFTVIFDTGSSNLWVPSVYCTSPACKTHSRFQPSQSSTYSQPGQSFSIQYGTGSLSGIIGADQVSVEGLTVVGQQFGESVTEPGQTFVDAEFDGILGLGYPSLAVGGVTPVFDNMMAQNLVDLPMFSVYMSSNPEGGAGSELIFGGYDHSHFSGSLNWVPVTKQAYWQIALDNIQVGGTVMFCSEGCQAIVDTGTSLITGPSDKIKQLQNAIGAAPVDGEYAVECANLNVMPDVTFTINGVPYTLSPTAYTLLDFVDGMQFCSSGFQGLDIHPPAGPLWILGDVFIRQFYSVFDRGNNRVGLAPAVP

[25] = target: Coagulation factor X (Homo sapiens) (UniProt P00742); test: Inhibition of factor Xa (unknown origin) at 10 uM
Sequence of Coagulation factor X (Homo sapiens) (P00742 41-179 limits assumed): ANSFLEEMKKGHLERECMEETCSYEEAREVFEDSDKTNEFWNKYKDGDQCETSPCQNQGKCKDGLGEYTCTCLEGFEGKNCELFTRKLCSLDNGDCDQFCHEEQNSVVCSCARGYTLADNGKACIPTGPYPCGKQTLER
Sequence of Coagulation factor X (Homo sapiens) (P00742 235-488 limits assumed): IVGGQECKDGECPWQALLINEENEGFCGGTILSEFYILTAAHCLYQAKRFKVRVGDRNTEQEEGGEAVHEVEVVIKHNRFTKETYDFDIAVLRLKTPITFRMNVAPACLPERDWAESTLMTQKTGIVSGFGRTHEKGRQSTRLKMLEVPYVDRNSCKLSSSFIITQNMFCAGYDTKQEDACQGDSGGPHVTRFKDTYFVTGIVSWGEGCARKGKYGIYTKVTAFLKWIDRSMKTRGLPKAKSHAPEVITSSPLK

[26] = target: Cathepsin L2 (Homo sapiens) (UniProt O60911); test: Inhibition of cathepsin V (unknown origin) at 10 uM
Caspase-1 (Homo sapiens) = Caspase-1 (Homo sapiens) (UniProt P29466); test: Inhibition of Caspase 1 (unknown origin) at 10 uM
Sequence of Caspase-1 (Homo sapiens) (P29466 120-297 limits assumed): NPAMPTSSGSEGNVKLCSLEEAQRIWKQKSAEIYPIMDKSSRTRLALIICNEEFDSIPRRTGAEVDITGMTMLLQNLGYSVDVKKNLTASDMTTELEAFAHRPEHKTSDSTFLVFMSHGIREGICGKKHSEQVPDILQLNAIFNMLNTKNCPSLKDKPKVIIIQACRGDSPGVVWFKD
Sequence of Caspase-1 (Homo sapiens) (P29466 317-404 limits assumed): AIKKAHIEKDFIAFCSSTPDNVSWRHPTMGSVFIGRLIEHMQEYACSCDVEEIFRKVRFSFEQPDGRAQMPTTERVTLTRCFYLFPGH

Caspase-2 (Homo sapiens) = Caspase-2 (Homo sapiens) (UniProt P42575); test: Inhibition of Caspase 2 (unknown origin) at 10 uM
Sequence of Caspase-2 (Homo sapiens) (P42575 170-325 limits assumed): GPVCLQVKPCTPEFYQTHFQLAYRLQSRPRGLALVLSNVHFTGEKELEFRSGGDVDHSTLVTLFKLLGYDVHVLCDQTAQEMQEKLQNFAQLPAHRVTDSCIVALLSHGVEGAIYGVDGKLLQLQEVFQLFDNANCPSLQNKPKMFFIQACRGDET
Sequence of Caspase-2 (Homo sapiens) (P42575 334-452 limits assumed): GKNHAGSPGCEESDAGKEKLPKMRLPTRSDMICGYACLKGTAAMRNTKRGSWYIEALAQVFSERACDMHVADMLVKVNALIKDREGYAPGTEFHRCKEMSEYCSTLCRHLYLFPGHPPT

Caspase-5 (Homo sapiens) = Caspase-5 (Homo sapiens) (UniProt P51878); test: Inhibition of Caspase 5 (unknown origin) at 10 uM
Sequence of Caspase-5 (Homo sapiens) (P51878 137-327 limits assumed): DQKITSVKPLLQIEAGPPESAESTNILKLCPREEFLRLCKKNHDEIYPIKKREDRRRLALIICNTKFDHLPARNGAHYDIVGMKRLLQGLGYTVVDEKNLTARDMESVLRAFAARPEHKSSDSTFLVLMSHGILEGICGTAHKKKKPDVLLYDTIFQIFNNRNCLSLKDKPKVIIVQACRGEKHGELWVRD
Sequence of Caspase-5 (Homo sapiens) (P51878 347-434 limits assumed): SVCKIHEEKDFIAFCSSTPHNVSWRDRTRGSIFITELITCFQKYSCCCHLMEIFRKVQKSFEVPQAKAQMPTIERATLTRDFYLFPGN

Caspase-7 (Homo sapiens) = Caspase-7 (Homo sapiens) (UniProt P55210); test: Inhibition of Caspase 7 (unknown origin) at 10 uM

half-life [1]	half-life [2]	AUC(0-inf) [3]	EC50 (OCI-Ly3)	fraction unbound [4]	clearance [5]	half-life [6]	bioavailability [7]	inhibition [10]	inhibition [12]	inhibition (Homo sapiens [13])	inhibition (Trypsin (Homo sapiens))	inhibition [14]	inhibition [15]	inhibition [16]	inhibition [17]	inhibition (Caspase-4 (Homo sapiens))	inhibition (Caspase-6 (Homo sapiens))	inhibition (Caspase-8 (Homo sapiens))	inhibition (Homo sapiens [18])	SMILES	other results
> 3 h	> 3 h	3.37 µg·h/mL	0.27 µM	0.006	0.084 L/h/kg	12.2 h	7%	–	–	–	–	–	–	–	–	–	–	–	–	COC(C)c1c(NC(=O)Nc2cnc(-n3nccn3)c(Cl)c2)cnc2ccc(F)cc12 (stereo not given)	fraction unbound [8]: 0.002
1.97 h	> 3 h	8.2 µg·h/mL	0.41 µM	0.012	0.24 L/h/kg	2.7 h	30%	22.3%	-6.2%	19.6%	16.7%	14.9%	6.3%	21.5%	23%	15.8%	6.5%	13.9%	10.3%	COC(C)(C)c1c(NC(=O)Nc2cnc(-n3nccn3)c(Cl)c2)cnc2ccc(F)cc12	solubility [9]: < 4 µM; inhibition [11]: -3.3%; inhibition (Legumain (Homo sapiens)): 42.5%
0.717 h	2.12 h	10.1 µg·h/mL	0.36 µM	0.022	0.096 L/h/kg	3.2 h	19%	18.8%	-9%	2%	1.9%	22%	14.1%	11.8%	15.7%	9%	-3.9%	10.8%	-9.4%	CCOC(C)c1c(NC(=O)Nc2cnc(-n3nccn3)c(Cl)c2)cnc2sc(C)nc12 (stereo not given)	solubility [9]: < 4 µM; fraction unbound [8]: 0.025; inhibition [19]: -2.6%; inhibition [20]: 1%; inhibition [21]: 21.9%; inhibition (Caspase-3 (Homo sapiens)): 1%; inhibition (Caspase-9 (Homo sapiens)): 17.5%; inhibition [22]: -5.2%; inhibition (Legumain (Homo sapiens)): -4.2%
–	–	–	0.12 µM	–	–	–	–	98.7%	99.7%	99.4%	100%	108%	98.8%	102%	100%	110%	88.1%	99.7%	98.8%	CO[C@@H](C)c1c(NC(=O)Nc2cnc(-n3nccn3)c(Cl)c2)cnc2cc(Cl)nn12	inhibition [23]: 99.8%; inhibition [24]: 100%; inhibition [25]: 99.8%; inhibition [11]: 92.5%; inhibition [19]: 94.8%; inhibition [20]: 99.9%; inhibition [21]: 99.7%; inhibition [26]: 99%; inhibition (Caspase-1 (Homo sapiens)): 99.7%; inhibition (Caspase-2 (Homo sapiens)): 87.3%; inhibition (Caspase-3 (Homo sapiens)): 99.9%; inhibition (Caspase-5 (Homo sapiens)): 92.6%; inhibition (Caspase-7 (Homo sapiens)): 98.1%; inhibition (Caspase-9 (Homo sapiens)): 89.2%; inhibition [22]: 89.9%; inhibition (Legumain (Homo sapiens)): 88.4%
